Assay results reported in patent US11590110B2, “Compositions and methods for reactivating latent immunodeficiency virus using a GSK-3 inhibitor” (priority 2017, dated 2023).
“Also recorded” adds a separate entry of the source. Like-named read-outs stand apart in the source and are kept apart here.

Columns and labels:
CD8+ T cells = experiment: Example 5: CD8 T-cell viability and cytotoxic effector functions; format: cell-based, human; settings: 48 hours; 50 nM
Procedure: After drug treatment, human PBMCs were cultured in complete RPMI in the presence of CD107a-BV650 (1:50, 328637, BioLegend) or CD107a-FITC antibodies (1:50, 555800, BD Bioscience) and PMA/ionomycin (50 ng/ml and 1 uM) dor 3.5 hours, adding Brefeldin A and Monensin (eBioscience) for the last hour. Cells were subsequently stained for viability using the viability dyes eFluor 506, (eBioscience) according to the provided protocol. After surface marker staining with the following antibodies (all at 1:100 dilution): CD3-APC-H7 (560176; BD Biosciences), CD8-V450 (560347; BD Biosciences), CD45RA-APC (17-0458; eBioscience), and CCR7-PE-Cy7 (557648; BD Biosciences), cells were permeabilized and fixed using the Foxp3/Transcription Factor Fixation/Permeabilization Concentrate and Diluent kit (eBioscience). Intracellular staining was performed with IFN-γ-PerCP-Cy5.5 antibody (1:100, 560704, BD Bioscience) in FOXP3 perm/wash buffer for 1 h at 4° C. After washing and fixation of the cells in 1% paraformaldehyde/PBS, cells were analyzed by flow cytometry. Final data stems from having gated on CD8hi- and CD8lo-expressing T cells.

CD4+ T cells [1] = experiment: Example 5: CD4+ T cell viability, Cell Titer Blue assay; format: cell-based, human; settings: 48 hours; for CD4+ T-cell viability: SB-216763 and tideglusib 10/100/1000 nM, bryostatin-1 10 nM
Procedure: 25 μl from each well/treatment were incubated with Cell Titer Blue reagent (Promega) for 3 to 4 hours at 37° C. The assay is based on the ability of living cells to convert a redox dye (resazurin) into a fluorescent end product (resorufin). Colorimetric analysis of treated cells was done with a Perkin Elmer EnSpire 2300 Multimode plate reader set to detect fluorescence (Ex:579 nm/Em:584 nm).

[2] = test system: patient-derived CD4+ T cells; settings: as shown in PCT/US2016/64614; cited from earlier work
NK cells = experiment: Example 5: NK cell viability and cytotoxic effector functions; format: cell-based, human; settings: 48 hours; 50 nM
Procedure: Density centrifugation using a Ficoll-Hypaqua gradient was performed to purify PBMCs from continuous-flow centrifugation leukapheresis product. Subsequently, cells were plated in 96-well U-bottom plated in complete RPMI, which was supplemented with 10 ng/ml recombinant IL-15 (R&D systems), treated with LRAs or vehicle controls (DMSO) and incubated at 37° C., 5% CO2 for 48 h. To assay NK cell functionality, cells were analyzed by flow cytometry. Briefly, 1×10^6 cells/200 ul were stained with FITC anti-CD107 antibodies (1:50, BD Biosciences), mixed with 1×10^5 K562 cells and incubated at 37° C., 5% CO2 for 1 h. Then, in order to enhance intracellular cytokine staining, protein transport was blocked with Brefeldin A (Sigma-Aldrich) and golgi stop (BD Biosciences) according to the manufacturer instructions and the cells were incubated at 37° C., 5% CO2 for another 5 h. Afterwards, cells were spun down (5 min, 330×g, RT), the supernatant was removed and the cells were stained using Zombie violet (1:50, Biolegend) according to the manufacturer protocol. Subsequently, cells were stained for surface proteins staining with the following antibodies: APC/Cy7 anti CD3 (1:100, Biolegend), APC anti CD14 (1:100, Biolegend), APC anti CD19 (1:100, Biolegend), PE/Cy7 anti CD56 (1:100, BD Biosciences), Alexa Fluor 700 anti CD16 (1:100, Biolegend), PE anti CD7 (1:50, Thermo Fisher Scientific) for 15 min at room temperature. Next, cells were permeabilized and fixed using the Foxp3/Transcription Factor Fixation/Permeabilization Concentrate and Diluent kit (eBioscience) and stained intracellularly with PerCP/Cy5 anti IFN-γ (1:50, BD Bioscience) in FOXP3 perm/wash buffer for 1 h at 4° C. Finally, cells were washed and fixed in 1% paraformaldehyde/PBS, and subjected to flow cytometry analysis on a LSRII (BD Biosciences). Data were obtained using FlowJo software (Treestar). Samples were gated for singlets, live, CD3 negative, CD14/CD19 negative and CD7 positive cells as previously described (York, Milush). CD16high/CD56dim, CD16dim/CD56high cells were considered for analysis of IFN-γ and CD107a positivity. All gates were defined, based on fluorescence minus one (FMO) samples.

tonsil CD4+ T cells = experiment: Example 6: cell viability in tonsil CD4+ T cell cultures, Cell-Titer Blue; settings: SB216763 10-1,000 nM, PMA 200 nM, panobinostat 50 nM; 48 hours
CD4+ T cells [3] = experiment: Example 5: cytokines release assay (V-PLEX pro-inflammatory panel); format: cell-based, human; settings: 48 hours; culture supernatant of CD4+ T cells
Procedure: Supernatant was collected from the treated cell cultures described above and stored at −80° C. for later analysis. Supernatant cytokine levels were determined using a V-PLEX Proinflammatory Panel 1 (human) Kit (#K15049D-1) and a V-PLEX IL-17A Gen. B (human) (#K151WMD) from Meso Scale Discovery, following the manufacturer's protocol. The assay was done on undiluted supernatant samples in order to increase the sensitivity of the assay.

[4] = test system: latent HIV-1 in blood CD4+ T cells from infected individuals on suppressive ART; format: cell-based
CD4+ T cells [5] = experiment: Example 5: surface expression of activation markers CD69 and CD25, flow cytometry; format: cell-based, human; settings: 48 hours
Procedure: (§1) Freshly isolated PBMCs or CD4^+ T cells were stained for viability, using the fixable viability dye Zombie violet (1:50, Biolegend) according to the manufacturer's recommendation. Surface staining was performed with the following antibodies at 1:100 dilutions: CD3-PE-Cy7, CD4-APC-Cy7, CD69-FITC, CD25-PE (all 1:100, Biolegend), and Glut-1-Ax647 (BD Bioscience, 566580) in staining buffer for 20 min on ice and cells were fixed in 1% PFA-containing PBS. All flow analysis was performed on the LSRII (BD Biosciences) using FlowJo software (v.10.4.2). Color compensations were performed using single-stained samples for each of the fluorochromes used. Data were analyzed using FlowJo software (TreeStar, San Carlos, Calif.).

[6] = test system: patient-derived CD4+ T cells; settings: as shown in PCT/US2016/64614; cited from earlier work; remark: listed apart in the source
[7] = test system: latent HIV-GFP reporter virus in resting CD4+ T cells from human tonsil; experiment: Example 6: lymphoid tissue model of HIV latency, HIV-GFP reporter, flow cytometry; format: cell-based; settings: 48 hours; for latency reversal by first-generation LRAs: bryostatin-1 10 nM, JQ1 100 nM, panobinostat 50 nM
CD4+ T cells [8] = experiment: Example 5: lactate production analysis; format: cell-based, human
Procedure: Subsequently, media of the treated samples were tested for production of L-lactated using a Glycolysis Cell-Based Assay Kit (Cayman Chemical). This test measures the quantity of formazan, an artificial chromogenic dye that results from the reduction of tetrazolium salts in the presence of NADH in the culture media. Colored formazan absorbs between 490 and 520 nm and can be detected by a plate reader. Since lactate dehydrogenase catalyzes the reaction between NAD+ and lactate, yielding pyruvate and NADH, which directly reduces the tetrazolium salt, the quantity of formazan produced is proportional to the quantity of L-lactate in the culture medium, and is thus an indirect measurement of glycolysis. In order to determine specific L-Lactate concentration, a standard curve was obtained analyzing absorbance of known concentration of L-lactate as indicated in the manufacturer's protocol.

GSK-3 = settings: cited from earlier work
patient CD4+ T cells = settings: human, 48 h
[9] = test system: latent HIV in CD4+ T cells of HIV-infected patients on suppressive anti-retroviral therapy; experiment: Example 7: reversal of HIV latency in patient CD4+ T cells, extracellular viral RNA by digital droplet PCR
CD4+ T cells [10] = experiment: Example 5: GLUT1 surface expression, flow cytometry; format: cell-based, human; settings: 2 or 24 hours; 1 μM tideglusib; CD4+ T cells of three HIV-negative donors
Procedure: as §1
Changes to the metabolism of resting CD4^+ T-cells by tideglusib were studied. […] […].

NF-κB (p65) = experiment: Example 5: NF-κB p65 nuclear translocation, western blot of nuclear extracts; format: cell-based, human; settings: 250 nM inhibitor with 1 μM tideglusib
[11] = 10 nM, 48 hours, relative to untreated control

Q: With `Cc1[nH]c2ccccc2c1CCNCc1ccc(/C=C/C(=O)NO)cc1` [panobinostat] as the compound, how does the “reduction of total CD8+ T cells” value (CD8+ T cells) read?
A: Its value is “approximately 40%”.

Q: And the “cell death of CD4+ T cells” value (CD4+ T cells [1]; 50 nM)?
A: The value was about 50%.

Q: And the “toxicity of known latency-reversing agent” value [2]?
A: The value was “highly toxic”.

Q: What about the “reduction of total NK cells” value (NK cells) of the same compound?
A: Its value is “approximately 60%”.

Q: Which “cell viability relative to untreated cells” value (tonsil CD4+ T cells) does the source give for `CCCCCCCCCCCCCC(=O)O[C@@H]1[C@@H](C)[C@@]2(O)[C@@H](C=C(CO)C[C@]3(O)C(=O)C(C)=C[C@@H]23)[C@@H]2C(C)(C)[C@]12OC(C)=O` [PMA, phorbol 12-myristic13-acetate] here?
A: The value was “clear toxicity; also recorded: toxicity was observed”.

Q: With `CCC/C=C/C=C/C(=O)O[C@H]1/C(=C/C(=O)OC)C[C@H]2C[C@H]([C@@H](C)O)OC(=O)C[C@H](O)C[C@@H]3C[C@H](OC(C)=O)C(C)(C)[C@](O)(C[C@@H]4C/C(=C/C(=O)OC)C[C@H](/C=C/C(C)(C)[C@]1(O)O2)O4)O3` [bryostatin-1] as the compound, how does the “production and release of pro-inflammatory cytokines” value (CD4+ T cells [3]) read?
A: The value was “release of IFN-γ, IL-6, IL-13”.

Q: What about the “virus-associated HIV-1 mRNA, mean fold-change” value [4, 11] of the same compound?
A: Its value is 574.4 fold.

Q: And the “virus-associated HIV-1 mRNA, median value” [4, 11]?
A: The value was 5.086 fold.

Q: What about the “CD4+ T-cell viability” value (CD4+ T cells [1]) of the same compound?
A: Its value is “minimal decrease”.

Q: And the CD69 surface expression (CD4+ T cells [5]; 10 nM)?
A: The CD69 surface expression was “markedly increased”.

Q: And the “activation marker expression with known latency-reversing agent” value [6]?
A: The value was “increase in activation marker expression”.

Q: What about the “latency reversal by first-generation LRAs” value [7] of the same compound?
A: The value was “only minimal latency reversal”.

Q: For `O=CC[C@@H](O)[C@H](O)[C@H](O)CO` [2-DG, 2-deoxy-D-glucose], which “L-lactate production in treated and untreated samples” value (CD4+ T cells [8]; 50 mM, 24 hours) is on record?
A: The value was “dramatically reduced L-lactate production”.

Q: Which IC50 (GSK-3) does the source give for `Cn1cc(C2=C(c3ccc(Cl)cc3Cl)C(=O)NC2=O)c2ccccc21` [SB-216763, 3-(2,4-Dichlorophenyl)-4-(1-methyl-1H-indol-3-yl)-1H-pyrrole-2,5-dione] here?
A: Its IC50 is […].

Q: And the “production and release of pro-inflammatory cytokines” value (CD4+ T cells [3])?
A: The value was “does not induce T cell activation or cytokine production”.

Q: What about the “toxicity based on cell-titer blue testing” value (patient CD4+ T cells) of the same compound?
A: Its value is “Neither tideglusib nor SB216763 induced toxicity”.

Q: And the “L-lactate in the culture media” value (CD4+ T cells [8]; 24 hours of treatment)?
A: Its value is “did not result in an increase of L-lactate”.

Q: And the “CD4+ T-cell viability” value (CD4+ T cells [1])?
A: Its value is “does not reduce viability”.

Q: And the “surface expression of the activation markers CD69 or CD25” value (CD4+ T cells [5])?
A: The value was “no increase”.

Q: And the “induction of the GFP reporter over unstimulated” value ([7]; doses between 100-1000 nM)?
A: Its value is 90 fold.

Q: And the “latency reversing activity, in words” value ([9]; at equivalent doses)?
A: Its value is “comparable activity”.

Q: What about the “subjects that did not respond” value ([9]; highest dose) of the same compound?
A: Its value is 3 of 14.

Q: For `CCOC(=O)C1=C(N)Oc2ccc(Cl)cc2C1C(C#N)C(=O)OCC` (stereo not drawn) [SC79, 2-amino-6-chloro-α-cyano-3-(ethoxycarbonyl)-4H-1-benzopyran-4-acetic acid ethyl ester], which “release of virions in the culture supernatant” value ([4]; 48 hours, CD4+ T cells from five HIV-positive participants, SC79 10/100/1000 nM) is on record?
A: Its value is “increased release of virions”.

Q: Which “latency reversal by first-generation LRAs” value [7] does the source give for `Cc1sc2c(c1C)C(c1ccc(Cl)cc1)=N[C@@H](CC(=O)OC(C)(C)C)c1nnc(C)n1-2` [JQ-1] here?
A: The value was “only minimal latency reversal”.

Q: With `CC(C)n1nc(-c2cc3cc(O)ccc3[nH]2)c2c(N)ncnc21` [PP242] as the compound, how does the “GLUT1 surface expression over the untreated control” value (CD4+ T cells [10]) read?
A: Its value is “did not significantly alter expression of GLUT1”.

Q: And the “effect of co-treatment on tideglusib-mediated p65 nuclear translocation” value (NF-κB (p65))?
A: Its value is “less reduction in nuclear translocation”.
